Assay results: US20250170266A1 (ZYMEWORKS BC INC., priority 2022, published 2025)
Like-named read-outs stand apart in the source and are kept apart here.

Assays:
Format in all cases: cell-based
hTLR7 = target: T1, hTLR7 (Homo sapiens, UniProt Q9NYK1); experiment: Reporter Gene Assay (RGA), HEK-Blue hTLR7 reporter cells, SEAP readout; details: overnight incubation, SEAP absorbance 620 nm
T1 construct: host or cells: HEK-Blue hTLR7 reporter cells (HEK293-derived, own knowledge)
T1 sequence (Q9NYK1 27-1049): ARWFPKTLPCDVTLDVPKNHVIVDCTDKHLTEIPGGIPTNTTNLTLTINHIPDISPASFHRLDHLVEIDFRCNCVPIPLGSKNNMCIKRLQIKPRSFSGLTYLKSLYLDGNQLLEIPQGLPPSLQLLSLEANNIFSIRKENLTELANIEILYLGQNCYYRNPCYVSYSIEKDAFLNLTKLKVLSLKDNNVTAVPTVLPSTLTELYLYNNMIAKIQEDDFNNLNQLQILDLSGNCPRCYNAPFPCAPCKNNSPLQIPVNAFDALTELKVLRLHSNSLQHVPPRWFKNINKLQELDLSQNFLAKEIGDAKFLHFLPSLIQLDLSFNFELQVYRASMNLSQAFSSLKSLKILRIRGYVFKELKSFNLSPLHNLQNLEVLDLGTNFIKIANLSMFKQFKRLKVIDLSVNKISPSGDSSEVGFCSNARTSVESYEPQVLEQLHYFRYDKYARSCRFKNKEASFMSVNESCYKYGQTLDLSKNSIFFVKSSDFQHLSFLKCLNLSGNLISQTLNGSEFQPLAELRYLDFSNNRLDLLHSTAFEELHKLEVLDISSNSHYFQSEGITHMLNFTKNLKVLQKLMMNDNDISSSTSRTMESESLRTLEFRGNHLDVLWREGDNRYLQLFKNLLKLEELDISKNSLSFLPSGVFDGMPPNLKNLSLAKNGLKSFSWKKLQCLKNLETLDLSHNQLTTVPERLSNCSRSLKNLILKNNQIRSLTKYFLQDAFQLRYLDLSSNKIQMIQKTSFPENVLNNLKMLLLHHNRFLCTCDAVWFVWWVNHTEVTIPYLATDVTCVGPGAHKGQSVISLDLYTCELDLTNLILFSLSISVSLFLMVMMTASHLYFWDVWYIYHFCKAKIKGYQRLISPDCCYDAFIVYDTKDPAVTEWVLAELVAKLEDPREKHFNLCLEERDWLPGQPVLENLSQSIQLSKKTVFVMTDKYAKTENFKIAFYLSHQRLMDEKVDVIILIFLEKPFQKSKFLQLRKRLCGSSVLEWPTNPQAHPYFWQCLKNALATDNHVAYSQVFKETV
Method: (§1) 1.5×10^4 HEK-Blue™ hTLR7 (Invivogen, San Diego, CA) or HEK-Blue™ mTLR7 (Invivogen, San Diego, CA) reporter cells were treated with a titration series of test compound (4-fold titration from […], 11 points). Compounds were initially diluted to 1 mM in DMSO and subsequently serial-diluted in assay media (HEK-Blue™ Detection; Invivogen, San Diego, CA). Cells with test compound were incubated overnight at 37° C.+5% CO2, and the amount of secreted embryonic alkaline phosphatase (SEAP) was determined by measuring absorbance (620 nm) using a Synergy™ H1 microplate reader.
(§2) Each assay included a positive control compound (referred to herein as “benchmark,” see, e.g., TABLE 3 below, and taken from International Patent Publication No. WO2017/072662, structure shown below) and a negative control (growth medium). […] The structure of the benchmark compound from International Patent Publication No. WO 2017/072662 is as follows: […]

mTLR7 = target: T2, mTLR7 (Mus musculus, UniProt P58681); experiment: Reporter Gene Assay (RGA), HEK-Blue mTLR7 reporter cells, SEAP readout; details: overnight incubation, SEAP absorbance 620 nm
T2 construct: host or cells: HEK-Blue mTLR7 reporter cells (HEK293-derived, own knowledge)
T2 sequence (P58681 27-1050): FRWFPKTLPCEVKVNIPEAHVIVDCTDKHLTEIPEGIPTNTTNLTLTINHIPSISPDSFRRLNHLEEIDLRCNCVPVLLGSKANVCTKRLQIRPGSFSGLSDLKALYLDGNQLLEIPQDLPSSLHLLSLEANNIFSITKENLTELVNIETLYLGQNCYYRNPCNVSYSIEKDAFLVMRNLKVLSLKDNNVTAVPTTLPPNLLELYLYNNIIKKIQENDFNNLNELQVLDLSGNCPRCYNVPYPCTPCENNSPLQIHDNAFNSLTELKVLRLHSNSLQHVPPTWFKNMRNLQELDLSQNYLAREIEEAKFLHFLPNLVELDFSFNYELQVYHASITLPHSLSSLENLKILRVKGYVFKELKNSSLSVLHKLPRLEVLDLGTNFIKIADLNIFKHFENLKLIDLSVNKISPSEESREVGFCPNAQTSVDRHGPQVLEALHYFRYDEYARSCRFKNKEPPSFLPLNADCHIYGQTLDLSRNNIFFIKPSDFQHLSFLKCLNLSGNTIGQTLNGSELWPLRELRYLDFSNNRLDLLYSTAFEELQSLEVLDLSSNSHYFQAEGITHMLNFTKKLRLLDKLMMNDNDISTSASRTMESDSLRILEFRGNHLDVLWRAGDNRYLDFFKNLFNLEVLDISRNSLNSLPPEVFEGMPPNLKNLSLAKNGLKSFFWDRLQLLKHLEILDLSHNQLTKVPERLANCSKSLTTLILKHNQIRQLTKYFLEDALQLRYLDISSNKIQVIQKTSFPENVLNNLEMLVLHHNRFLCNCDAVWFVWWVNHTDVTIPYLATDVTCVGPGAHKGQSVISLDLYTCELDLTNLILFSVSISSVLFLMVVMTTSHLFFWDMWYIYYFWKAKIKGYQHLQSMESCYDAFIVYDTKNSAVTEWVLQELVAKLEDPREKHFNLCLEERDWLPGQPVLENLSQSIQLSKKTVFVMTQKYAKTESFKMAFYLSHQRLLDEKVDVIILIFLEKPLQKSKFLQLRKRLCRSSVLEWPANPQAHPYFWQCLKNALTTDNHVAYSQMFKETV
Method: as §1, §2

[1] = test system: Human peripheral blood mononuclear cells (PBMCs); experiment: Human PBMC Assay, cytokine release (HTRF); details: PBMC, 24 hours
Description: Human peripheral blood mononuclear cells (PBMCs) were isolated from fresh Leukopak using magnetic separation. Briefly, erythrocytes and granulocytes were magnetically labeled with Erythrocyte Depletion MicroBeads (Miltenyi Biotec) and Granulocyte Depletion MicroBeads (Miltenyi Biotec), respectively. The cell suspension was loaded onto a Multi-24 Column Block (Miltenyi Biotec) and placed in the magnetic field of a MultiMACS Cell24 Separator Plus (Miltenyi Biotec). The unlabelled PBMCs were collected in the run through. PBMCs were resuspended in CryoStor® CS10 ([…]) and frozen. On the day before the assay, PBMCs were thawed in warm assay buffer (RPMI+10% FBS) and resuspended in assay buffer+10 ng/ml hIL3 (R&D Systems). Cells were rested at 37° C.+5% CO2 overnight. The following day, cells were spun down and resuspended in fresh assay buffer. 300,000 cells were added to each well of plates containing test compound. For test compound preparation, each compound was initially diluted to 1 mM in DMSO and further diluted in assay buffer. A 4-fold 11-point titration starting from 15 μM was performed. Cells were incubated with test compound at 37° C.+5% CO2 for 24 hours before supernatant was harvested. Human interleukin 6 (hIL6), human tumor necrosis factor alpha (hTNFα), and human interferon alpha (hIFNα) were quantified in the supernatant using homogeneous time resolved fluorescence (Cisbio).
as §2

[2] = hIFNα in supernatant, EC50 values approximated and divided into groups, read-out: PBMC IFNa EC50

Compound	EC50 (hTLR7)	EC50 (mTLR7)	EC50 [1, 2]	EC50 ([1]; hIL6 in supernatant, read-out: PBMC IL6 EC50)
CCOc1nc(N)c2nc(O)n(Cc3ccc(CNC4CCNC4)cc3OC)c2n1 (stereo in doubt) [Compound 133, (S)-6-amino-2-ethoxy-9-(2-methoxy-4-((pyrrolidin-3-ylamino)methyl)benzyl)-9H-purin-8-ol]	178 nM	859 nM	> 10 nM	
CCCCCNc1nc(N)nc2ccn(Cc3ccc(CN4CCN(CCNC(=O)CC(SC[C@@H](N)C(=O)O)C(=O)O)CC4)cc3OC)c12 (stereo partly drawn) [Benchmark, reference compound]	27 nM	95.4 nM		
CCOc1nc(N)c2nc(O)n(Cc3ccc(CNC/C=C/CN)cc3OC)c2n1 [Compound 126, (E)-6-amino-9-(4-(((4-aminobut-2-en-1-yl)amino)methyl)-2-methoxybenzyl)-2-ethoxy-9H-purin-8-ol]	33 nM	659 nM	> 10 nM	
CCOc1nc(N)c2nc(O)n(Cc3ccc(CNC4CCCNC4)cc3OC)c2n1 (stereo not drawn) [Compound 127, 6-amino-2-ethoxy-9-(2-methoxy-4-((piperidin-3-ylamino)methyl)benzyl)-9H-purin-8-ol]	175 nM	1030 nM	> 10 nM	
CCOc1nc(N)c2nc(O)n(Cc3ccc(CNC4CNC4)cc3OC)c2n1 [Compound 129, 6-amino-9-(4-((azetidin-3-ylamino)methyl)-2-methoxybenzyl)-2-ethoxy-9H-purin-8-ol]	81.1 nM	541 nM	> 10 nM	
CCOc1nc(N)c2nc(O)n(Cc3ccc(CNC4CC5(CNC5)C4)cc3OC)c2n1 [Compound 130, 9-(4-(((2-azaspiro[3.3]heptan-6-yl)amino)methyl)-2-methoxybenzyl)-6-amino-2-ethoxy-9H-purin-8-ol]	202 nM	1270 nM	> 10 nM	
CCOc1nc(N)c2nc(O)n(Cc3ccc(CNCCCN4CCNCC4)cc3OC)c2n1 [Compound 131, 6-amino-2-ethoxy-9-(2-methoxy-4-(((3-(piperazin-1-yl)propyl)amino)methyl)-benzyl)-9H-purin-8-ol]	86.1 nM	676 nM	> 10 nM	
CCOc1nc(N)c2nc(O)n(Cc3ccc(CNCCN4CCNCC4)cc3OC)c2n1 [Compound 134, 6-amino-2-ethoxy-9-(2-methoxy-4-(((2-(piperazin-1-yl)ethyl)amino)methyl)-benzyl)-9H-purin-8-ol]	363 nM	1650 nM	> 10 nM	
CCOc1nc(N)c2nc(O)n(Cc3ccc(CNCC(O)CN4CCOCC4)cc3OC)c2n1 (stereo not drawn) [Compound 136, 6-amino-2-ethoxy-9-(4-(((2-hydroxy-3-morpholinopropyl)amino)methyl)-2-methoxybenzyl)-9H-purin-8-ol]	223 nM	1710 nM	> 10 nM	
CCOc1nc(N)c2nc(O)n(Cc3ccc(CN4CCN(C(=O)CCCCCNC(=O)CC(SC[C@@H](N)C(=O)O)C(=O)O)CC4)cc3OC)c2n1 (stereo partly drawn) [Compound 148, 2-(((S)-2-amino-2-carboxyethyl)thio)-4-((6-(4-(4-((6-amino-2-ethoxy-8-hydroxy-9H-purin-9-yl)methyl)-3-methoxybenzyl)piperazin-1-yl)-6-oxohexyl)amino)-4-oxobutanoic Acid]	167 nM	1260 nM	> 10 nM	
CCOc1nc(N)c2nc(O)n(Cc3ccc(CN4CCN(C(=O)CCOCCOCCOCCNC(=O)CC(SC[C@@H](N)C(=O)O)C(=O)O)CC4)cc3OC)c2n1 (stereo partly drawn) [Compound 149, (19S)-19-amino-1-(4-(4-((6-amino-2-ethoxy-8-hydroxy-9H-purin-9-yl)methyl)-3-methoxybenzyl)piperazin-1-yl)-16-carboxy-1,14-dioxo-4,7,10-trioxa-17-thia-13-azaicosan-20-oic Acid]	520 nM	1260 nM	> 10 nM	
CCCCOc1nc(N)c2nc(O)n(Cc3ccc(CNCc4ccccc4)cc3OC)c2n1 [Compound 165, 6-amino-9-(4-((benzylamino)methyl)-2-methoxybenzyl)-2-butoxy-9H-purin-8-ol]	< 0.1 nM	< 0.1 nM	< 0.1 nM	6990 nM
CCCCOc1nc(N)c2nc(O)n(Cc3ccc(CCN4CCC5(CCNCC5)CC4)cc3OC)c2n1 [Compound 177, 9-(4-(2-(3,9-diazaspiro[5.5]undecan-3-yl)ethyl)-2-methoxybenzyl)-6-amino-2-butoxy-9H-purin-8-ol]	411 nM	15500 nM	> 10 nM	
CCCCOc1nc(N)c2nc(O)n(Cc3ccc(CCNC4CCNCC4)cc3OC)c2n1 [Compound 179, 6-amino-2-butoxy-9-(2-methoxy-4-(2-(piperidin-4-ylamino)ethyl)benzyl)-9H-purin-8-ol]	181 nM	422 nM	> 10 nM	
